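1) Cells in 96-well plates. 2) Compound, 48 h, 5 concentrations. 3) Linear interpolation between surrounding doses. 4) Unreached endpoint = highest concentration. TGI: total growth inhibition.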 Bounds are passed on as bounds.

Holding throughout (assay): NCI tumour cell line growth inhibition, 48 h
In assay [1] the test system is SNB-78 CNS.
Assay [2] has as its system LXFL 529 NSCLC.
Assay [3] relates to DLD-1 colon.
Assay [4] deals with RXF-631 renal.
In assay [5] the test system is KM20L2 colon.
The subject of assay [6] is P388 leukemia.
In assay [7] the test system is P388/ADR leukemia.
Assay [8] relates to SN12K1 renal.

With `O=S1(=O)NNC(=NCc2ccc(Cl)cc2)c2ccccc21`, the TGI in assay [1], in assay [2], in assay [3], in assay [4] and in assay [5] was over 100 µM in each case.

On to `NC(Cc1cc(I)c(O)c(I)c1)C(=O)O` (stereo not drawn), for which the TGI in assay [6] was 160 µM; in assay [7] it was over 364 µM; in assay [1] it was over 500 µM; in assay [3] it was over 500 µM; in assay [5] it was over 500 µM; in assay [8], 246 µM.

As to `O=c1[nH]c(=O)n(C2OC(COP(=O)(O)OP(=O)(O)O)C(O)C2O)cc1F` (stereo not drawn), the TGI in assay [1], in assay [2], in assay [3] and in assay [5] was over 50 µM throughout.

As to `COc1cc(C2C3=C(CCC3=O)Oc3cc4c(cc32)OCO4)cc(OC)c1OC` (stereo not drawn), the figures for the TGI in assay [1], in assay [4] and in assay [5] were over 100 µM, 78.3 µM and 0.664 µM, respectively.

For the origin of these results see PubChem BioAssay (NCI).
